Like-named read-outs stand apart in the source and are kept apart here.
Molecular target: T1, CFTR (Homo sapiens, UniProt P13569, DEL508-508)
T1 construct: endogenous in cells; host or cells: primary human bronchial epithelial cells from CF subjects (F508del/MF-HBE), differentiated at air-liquid interface
Assay: HBE assay: Ussing chamber assay of CFTR-mediated short-circuit currents
Type: cell-based
Settings: for EC50: read-out: HBE EC50; for Emax: read-out: HBE Max Activity (%); for activation at 10 µM: read-out: HBE Activity at 10 μM (%)
Summary of the method: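 CFTR-mediated Isc (μA/cm²) equals the peak response to apical 20 μM forskolin minus the residual after a 20 μM each BPO/GlyH-101/CFTR inhibitor 172 cocktail, recorded in Ussing chambers at Vhold 0 mV, 37 °C, pH 7.4, with 30 μM apical amiloride. Cells were F508del/MF HBE cultures preincubated 18-24 h with corrector (concentration range or 10 μM) plus 1 μM ivacaftor in 20% human serum.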

T1 sequence (P13569 with tags, fused parts or gaps DEL508-508): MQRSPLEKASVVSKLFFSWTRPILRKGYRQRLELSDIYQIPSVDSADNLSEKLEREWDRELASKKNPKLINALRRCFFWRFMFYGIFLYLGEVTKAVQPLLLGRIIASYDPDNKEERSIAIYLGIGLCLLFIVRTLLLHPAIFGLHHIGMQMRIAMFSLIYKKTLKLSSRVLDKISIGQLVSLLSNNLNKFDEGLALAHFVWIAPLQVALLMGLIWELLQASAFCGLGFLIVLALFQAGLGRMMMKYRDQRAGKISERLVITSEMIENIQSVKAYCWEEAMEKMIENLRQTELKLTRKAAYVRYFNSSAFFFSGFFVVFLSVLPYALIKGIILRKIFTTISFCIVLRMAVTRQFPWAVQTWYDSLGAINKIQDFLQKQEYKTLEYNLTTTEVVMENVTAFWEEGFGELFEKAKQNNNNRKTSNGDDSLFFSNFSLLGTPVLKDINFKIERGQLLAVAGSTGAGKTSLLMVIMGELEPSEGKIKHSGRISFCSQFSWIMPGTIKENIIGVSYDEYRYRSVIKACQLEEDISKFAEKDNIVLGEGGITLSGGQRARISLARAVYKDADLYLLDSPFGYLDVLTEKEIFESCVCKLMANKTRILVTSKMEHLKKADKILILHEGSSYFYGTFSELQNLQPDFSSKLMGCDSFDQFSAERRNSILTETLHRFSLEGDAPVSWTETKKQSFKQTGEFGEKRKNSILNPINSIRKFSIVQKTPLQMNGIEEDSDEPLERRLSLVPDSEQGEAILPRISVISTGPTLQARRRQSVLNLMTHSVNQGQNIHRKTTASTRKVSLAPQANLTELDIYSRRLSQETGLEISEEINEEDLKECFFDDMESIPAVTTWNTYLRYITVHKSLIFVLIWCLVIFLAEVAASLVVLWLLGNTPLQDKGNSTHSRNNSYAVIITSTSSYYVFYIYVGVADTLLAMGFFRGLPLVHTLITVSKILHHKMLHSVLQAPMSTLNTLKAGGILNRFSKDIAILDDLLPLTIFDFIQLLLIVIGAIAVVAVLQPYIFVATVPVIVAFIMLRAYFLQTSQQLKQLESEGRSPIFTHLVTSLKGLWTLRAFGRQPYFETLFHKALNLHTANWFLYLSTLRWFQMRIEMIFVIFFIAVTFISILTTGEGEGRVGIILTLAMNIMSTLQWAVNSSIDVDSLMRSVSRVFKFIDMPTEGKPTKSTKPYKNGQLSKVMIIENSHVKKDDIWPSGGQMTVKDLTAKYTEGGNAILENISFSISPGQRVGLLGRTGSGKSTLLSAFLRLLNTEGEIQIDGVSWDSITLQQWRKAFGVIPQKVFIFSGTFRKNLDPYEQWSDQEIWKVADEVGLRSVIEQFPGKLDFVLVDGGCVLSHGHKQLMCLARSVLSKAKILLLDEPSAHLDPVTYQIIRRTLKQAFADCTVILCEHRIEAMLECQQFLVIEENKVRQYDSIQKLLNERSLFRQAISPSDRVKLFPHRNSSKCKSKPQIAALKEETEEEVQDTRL

Row | Structure (SMILES) | EC50 (Table 11) [µM] | Emax (Table 11) [%] | also measured
1 | Cc1cccc(C)c1-c1cc2nc(n1)NS(=O)(=O)c1cccc(c1)C(=O)N(Cc1cccc(N3CC(C)(C)C3)n1)[C@H](CC(C)(C)C)CO2 [Compound 632] | < 1 | > 60 | –
2 | Cc1cccc(C)c1-c1cc2nc(n1)NS(=O)(=O)c1cccc(c1)C(=O)N(Cc1ncc(N(C)C(C)C)cn1)[C@H](CC(C)(C)C)CO2 [Compound 633] | 1 to 3 | > 60 | –
3 | Cc1cccc(C)c1-c1cc2nc(n1)NS(=O)(=O)c1cccc(c1)C(=O)N(Cc1ncc(C3CCOCC3)cn1)[C@H](CC(C)(C)C)CO2 [Compound 634] | < 1 | > 60 | –
4 | Cc1cccc(C)c1-c1cc2nc(n1)NS(=O)(=O)c1cccc(c1)C(=O)N(Cc1ncc(C3CCC3)cn1)[C@H](CC(C)(C)C)CO2 [Compound 635] | 3 to 30 | > 60 | –
5 | Cc1cccc(C)c1-c1cc2nc(n1)NS(=O)(=O)c1cccc(c1)C(=O)N(Cc1nccc(N3CCC(C)(C)CC3)n1)[C@H](CC(C)(C)C)CO2 [Compound 636] | < 1 | – | HBE Max activity (%) (Table 11): +++ (+++ is >60%)
6 | Cc1cccc(C)c1-c1cc2nc(n1)NS(=O)(=O)c1cccc(c1)C(=O)N(Cc1cccc(N(C(C)C)C(C)C)n1)[C@H](CC(C)(C)C)CO2 [Compound 637] | 3 to 30 | > 60 | –
7 | Cc1cccc(C)c1-c1cc2nc(n1)NS(=O)(=O)c1cccc(c1)C(=O)N(Cc1ncc(C3CCCC3)cn1)[C@H](CC(C)(C)C)CO2 [Compound 638] | 1 to 3 | > 60 | –
8 | COCCN1CCC(CN2C(=O)c3cccc(c3)S(=O)(=O)Nc3nc(cc(-c4c(C)cccc4C)n3)OC[C@H]2CC(C)(C)C)C1=O (some centres unmarked) [Compound 639] | < 1 | > 60 | –
9 | COCCN1CCC(CN2C(=O)c3cccc(c3)S(=O)(=O)Nc3nc(cc(-c4c(C)cccc4C)n3)OC[C@H]2CC(C)(C)C)C1=O (some centres unmarked) [Compound 640] | < 1 | – | –
10 | COCCN1CCCC(CN2C(=O)c3cccc(c3)S(=O)(=O)Nc3nc(cc(-c4c(C)cccc4C)n3)OC[C@H]2CC(C)(C)C)C1=O (some centres unmarked) [Compound 641] | 1 to 3 | > 60 | –
11 | Cc1cccc(C)c1-c1cc2nc(n1)NS(=O)(=O)c1cccc(c1)C(=O)N(Cc1ncc(C3CC3)cn1)[C@H](CC(C)(C)C)CO2 [Compound 642] | 1 to 3 | > 60 | –
12 | Cc1cccc(C)c1-c1cc2nc(n1)NS(=O)(=O)c1cccc(c1)C(=O)N(Cc1ncc(C#N)cn1)[C@H](CC(C)(C)C)CO2 [Compound 643] | < 1 | > 60 | –
13 | Cc1cccc(C)c1-c1cc2nc(n1)NS(=O)(=O)c1cccc(c1)C(=O)N(Cc1ncc(C3CCCCC3)cn1)[C@H](CC(C)(C)C)CO2 [Compound 644] | 1 to 3 | > 60 | –
14 | Cc1cccc(C)c1-c1cc2nc(n1)NS(=O)(=O)c1cccc(c1)C(=O)N(Cc1nccc(N)n1)[C@H](CC(C)(C)C)CO2 [Compound 645] | < 1 | > 60 | –
15 | Cc1cccc(C)c1-c1cc2nc(n1)NS(=O)(=O)c1cccc(c1)C(=O)N(Cc1nccc(NCC(C)(C)C)n1)[C@H](CC(C)(C)C)CO2 [Compound 646] | < 1 | > 60 | –
16 | CNc1ccnc(CN2C(=O)c3cccc(c3)S(=O)(=O)Nc3nc(cc(-c4c(C)cccc4C)n3)OC[C@H]2CC(C)(C)C)n1 [Compound 647] | < 1 | > 60 | –
17 | Cc1cccc(C)c1-c1cc2nc(n1)NS(=O)(=O)c1cccc(c1)C(=O)N(Cc1nccc(N3CCC(C)(C)C3)n1)[C@H](CC(C)(C)C)CO2 [Compound 648] | < 1 | > 60 | –
18 | Cc1cccc(C)c1-c1cc2nc(n1)NS(=O)(=O)c1cccc(c1)C(=O)N(Cc1nccc(N(C)C)n1)[C@H](CC(C)(C)C)CO2 [Compound 649] | < 1 | > 60 | –
19 | Cc1cccc(C)c1-c1cc2nc(n1)NS(=O)(=O)c1cccc(c1)C(=O)N(Cc1nccc(N(C)CC(C)(C)C)n1)[C@H](CC(C)(C)C)CO2 [Compound 650] | < 1 | > 60 | –
20 | Cc1cccc(C)c1-c1cc2nc(n1)NS(=O)(=O)c1cccc(c1)C(=O)N(Cc1nccc(N3CCOCC3)n1)[C@H](CC(C)(C)C)CO2 [Compound 651] | < 1 | > 60 | –
21 | Cc1cccc(C)c1-c1cc2nc(n1)NS(=O)(=O)c1cccc(c1)C(=O)N(CC1CCN(CCC(C)(C)C)C1=O)[C@H](CC(C)(C)C)CO2 (some centres unmarked) [Compound 652] | < 1 | > 60 | activation at 10 µM (Table 11): > 60%
22 | Cc1cccc(C)c1-c1cc2nc(n1)NS(=O)(=O)c1cccc(c1)C(=O)N(CC1CCN(CCC(C)(C)C)C1=O)[C@H](CC(C)(C)C)CO2 (some centres unmarked) [Compound 653] | < 1 | – | –
23 | Cc1cccc(C)c1-c1cc2nc(n1)NS(=O)(=O)c1cccc(c1)C(=O)N(CC1CCCN(CCC(C)(C)C)C1=O)[C@H](CC(C)(C)C)CO2 (some centres unmarked) [Compound 654] | < 1 | > 60 | –

Row | Structure (SMILES) | EC50 (Table 11) [µM] | Emax (Table 11) [%] | also measured
24 | Cc1cccc(C)c1-c1cc2nc(n1)NS(=O)(=O)c1cccc(c1)C(=O)N(CC1CCCN(CCC(C)(C)C)C1=O)[C@H](CC(C)(C)C)CO2 (some centres unmarked) [Compound 655] | < 1 | – | –
25 | Cc1cccc(C)c1-c1cc2nc(n1)NS(=O)(=O)c1cccc(c1)C(=O)N(Cc1nccc(OC(C)C)n1)[C@H](CC(C)(C)C)CO2 [Compound 656] | < 1 | > 60 | –
26 | COCCN(C)c1ccnc(CN2C(=O)c3cccc(c3)S(=O)(=O)Nc3nc(cc(-c4c(C)cccc4C)n3)OC[C@H]2CC(C)(C)C)n1 [Compound 657] | < 1 | > 60 | –
27 | Cc1cccc(C)c1-c1cc2nc(n1)NS(=O)(=O)c1cccc(c1)C(=O)N(Cc1ncc(OC3CCC3)cc1Cl)[C@H](CC(C)(C)C)CO2 [Compound 690] | – | – | EC50 (Table 13): < 1 µM; Emax (Table 13): > 60%
28 | Cc1cccc(C)c1-c1cc2nc(n1)NS(=O)(=O)c1cccc(c1)C(=O)N(Cc1ncc(OC(C)C)cc1Cl)[C@H](CC(C)(C)C)CO2 [Compound 691] | – | – | EC50 (Table 13): < 1 µM; Emax (Table 13): > 60%
29 | Cc1cccc(C)c1-c1cc2nc(n1)NS(=O)(=O)c1cccc(c1)C(=O)N(Cc1cnc(N3CCOCC3)s1)[C@H](CC(C)(C)C)CO2 [Compound 693] | – | – | activation at 10 µM (Table 12): 30 to 60%
30 | Cc1cccc(C)c1-c1cc2nc(n1)NS(=O)(=O)c1cccc(c1)C(=O)N(Cc1cncc(N(C)CC(C)(C)C)n1)[C@H](C(C)C)CO2 [Compound 694] | – | – | EC50 (Table 12): < 1 µM; Emax (Table 12): > 60%
31 | Cc1cccc(C)c1-c1cc2nc(n1)NS(=O)(=O)c1cccc(c1)C(=O)N(Cc1ncc(N3CCC(C)(C)C3)cn1)[C@H](C(C)C)CO2 [Compound 695] | – | – | activation at 10 µM (Table 12): > 600%; EC50 (Table 12): < 1 µM; Emax (Table 12): < 30%
32 | Cc1cccc(C)c1-c1cc2nc(n1)NS(=O)(=O)c1cccc(c1)C(=O)N(Cc1ncc(OC(C)C)cn1)[C@H](C(C)C)CO2 [Compound 696] | – | – | activation at 10 µM (Table 12): > 600%; EC50 (Table 12): < 1 µM; Emax (Table 12): < 30%
33 | Cc1cccc(C)c1-c1cc2nc(n1)NS(=O)(=O)c1cccc(c1)C(=O)N(Cc1ccc3nc(NC(=O)CC(C)C)sc3c1)[C@H](CC(C)(C)C)CO2 [Compound 697] | – | – | activation at 10 µM (Table 12): > 600%
34 | Cc1cccc(C)c1-c1cc2nc(n1)NS(=O)(=O)c1cccc(c1)C(=O)N(Cc1nccnc1C)[C@H](CC(C)(C)C)CO2 [Compound 698] | – | – | activation at 10 µM (Table 12): > 600%
35 | Cc1cccc(C)c1-c1cc2nc(n1)NS(=O)(=O)c1cccc(c1)C(=O)N(Cc1cn3ccccc3n1)[C@H](CC(C)(C)C)CO2 [Compound 699] | – | – | EC50 (Table 12): < 1 µM; Emax (Table 12): > 60%
36 | Cc1cccc(C)c1-c1cc2nc(n1)NS(=O)(=O)c1cccc(c1)C(=O)N(Cc1nc3ccccn3c1C)[C@H](CC(C)(C)C)CO2 [Compound 700] | – | – | activation at 10 µM (Table 12): > 600%
37 | Cc1cccc(C)c1-c1cc2nc(n1)NS(=O)(=O)c1cccc(c1)C(=O)N(Cc1nc(C3CC3)cs1)[C@H](CC(C)(C)C)CO2 [Compound 701] | – | – | activation at 10 µM (Table 12): > 600%
38 | Cc1cccc(C)c1-c1cc2nc(n1)NS(=O)(=O)c1cccc(c1)C(=O)N(Cc1nc(C(C)(C)C)cs1)[C@H](CC(C)(C)C)CO2 [Compound 702] | – | – | activation at 10 µM (Table 12): > 600%
39 | Cc1cccc(C)c1-c1cc2nc(n1)NS(=O)(=O)c1cccc(c1)C(=O)N(Cc1coc(C(C)C)n1)[C@H](CC(C)(C)C)CO2 [Compound 703] | – | – | EC50 (Table 12): < 1 µM; Emax (Table 12): > 60%
40 | Cc1cccc(C)c1-c1cc2nc(n1)NS(=O)(=O)c1cccc(c1)C(=O)N(Cc1nc(C(C)C)cs1)[C@H](CC(C)(C)C)CO2 [Compound 704] | – | – | EC50 (Table 12): < 1 µM; Emax (Table 12): > 60%
41 | Cc1cccc(C)c1-c1cc2nc(n1)NS(=O)(=O)c1cccc(c1)C(=O)N(Cc1ncc(C(C)C)s1)[C@H](CC(C)(C)C)CO2 [Compound 705] | – | – | EC50 (Table 12): < 1 µM; Emax (Table 12): > 60%
42 | Cc1cccc(C)c1-c1cc2nc(n1)NS(=O)(=O)c1cccc(c1)C(=O)N(Cc1ccc(C3CC(C)(C)CCO3)cn1)[C@H](CC(C)(C)C)CO2 (some centres unmarked) [Compound 706] | – | – | EC50 (Table 12): < 1 µM; Emax (Table 12): > 60%
43 | Cc1cccc(C)c1-c1cc2nc(n1)NS(=O)(=O)c1cccc(c1)C(=O)N(Cc1ccc(C3CCCCO3)cn1)[C@H](CC(C)(C)C)CO2 (some centres unmarked) [Compound 707] | – | – | EC50 (Table 12): < 1 µM; Emax (Table 12): > 60%
44 | Cc1cccc(C)c1-c1cc2nc(n1)NS(=O)(=O)c1cccc(c1)C(=O)N(Cc1ncc(N3CCC4(CC3)CC4)cn1)[C@H](CC(C)(C)C)CO2 [Compound 708] | 1 to 3 | > 60 | –
45 | Cc1cccc(C)c1-c1cc2nc(n1)NS(=O)(=O)c1cccc(c1)C(=O)N(Cc1cccc(N3[C@H](C)CC[C@@H]3C)n1)[C@H](CC(C)(C)C)CO2 [Compound 709] | < 1 | 30 to 60 | –
46 | Cc1cccc(C)c1-c1cc2nc(n1)NS(=O)(=O)c1cccc(c1)C(=O)N(Cc1cccc(N3CCC[C@@H]3C)n1)[C@H](CC(C)(C)C)CO2 [Compound 710] | < 1 | > 60 | –

From US20240150377A1, “MODULATORS OF CYSTIC FIBROSIS TRANSMEMBRANE CONDUCTANCE REGULATOR” (VERTEX PHARMACEUTICALS INCORPORATED, priority 2020, published 2024)
